{"source": "patent US12625150B2", "about": "“Treatment of, and differential diagnosis between, ACTH-dependent Cushing's syndrome and ACTH-independent Cushing's syndrome” (Corcept Therapeutics Incorporated, priority 2019, dated 2026)", "key": {"[1]": {"system": "serum ACTH and cortisol levels", "test": "Serum ACTH and cortisol levels and ACTH:cortisol ratio in Cushing's syndrome patients administered mifepristone", "assay_type": "in vivo, human"}, "[2]": {"system": "serum ACTH and cortisol levels", "test": "Serum ACTH and cortisol levels and ACTH:cortisol ratio in Cushing's syndrome patients administered relacorilant", "assay_type": "in vivo, human", "details": "for change in ACTH:cortisol ratio following treatment: relacorilant 100-400 mg/day, six weeks", "experimental": "Cushing's syndrome (CS) patients were examined and serum levels of ACTH and cortisol were measured in blood samples obtained from the patients. The serum ACTH and cortisol levels determined prior to administration of glucocorticoid receptor antagonist (GRA) therapy were used to calculate baseline ACTH:cortisol ratios (basal ACTH:cortisol ratios). […] The patients then received oral glucocorticoid receptor antagonist (GRA) therapy (either mifepristone or relacorilant, typically daily) for at least six weeks. The serum ACTH and cortisol levels determined after these six weeks of GRA therapy were used to calculate after-GRA ACTH:cortisol ratios. Three patients were treated with relacorilant (100 milligrams (mg) per day, titrated up to 400 mg per day, as tolerated; see Table 1). […] The results of these clinical measurements in Cushing's syndrome patients administered relacorilant (100 milligrams (mg) per day, titrated up to 400 mg per day, as tolerated) are presented in the Table 1: […]"}}, "note": "Values joined by “and” are separate entries in the source; they are usually repeats but may differ in a detail not shown here. Equal values may be shown once.", "data": [{"compound": "CC#C[C@]1(O)CC[C@H]2[C@@H]3CCC4=CC(=O)CCC4=C3[C@@H](c3ccc(N(C)C)cc3)C[C@@]21C", "note": "[mifepristone, 11β-(4-dimethylaminophenyl)-17β-hydroxy-17α-(1-propynyl)-estra-4,9-dien-3-one]", "values": [{"measurement": "Basal ACTH", "setting": "[1]; individual patients with confirmed pituitary CS (ACTH dependent), serum, prior to mifepristone", "result": "16 pg/mL and 21 pg/mL and 20 pg/mL and 7 pg/mL and 15 pg/mL and 8 pg/mL"}, {"measurement": "Day 14 Serum Cortisol", "setting": "[1]; individual patients with confirmed pituitary CS, day 14 of oral mifepristone 300 mg/day titrated up to 900 mg/day", "result": "486 nmol/L and 955 nmol/L and 914 nmol/L and 900 nmol/L and 809 nmol/L and 613 nmol/L"}, {"measurement": "Basal Serum Cortisol", "setting": "[1]; individual patients with confirmed pituitary CS, prior to mifepristone", "result": "337 nmol/L and 632 nmol/L and 734 nmol/L and 317 nmol/L and 494 nmol/L and 502 nmol/L"}, {"measurement": "Day 14 ACTH", "setting": "[1]; individual patients with confirmed pituitary CS, serum, day 14 of oral mifepristone 300 mg/day titrated up to 900 mg/day", "result": "34 pg/ml (2×) and 53 pg/ml and 21 pg/ml and 30 pg/ml and 22 pg/ml"}, {"measurement": "Week 6 Basal ACTH", "setting": "[1]; individual patients with confirmed pituitary CS, serum, week 6 of oral mifepristone 300 mg/day titrated up to 900 mg/day", "result": "57 pg/mL and 52 pg/mL and 65 pg/mL and 24 pg/mL and 49 pg/mL and 20 pg/mL"}, {"measurement": "Week 6 Serum Cortisol", "setting": "[1]; individual patients with confirmed pituitary CS, week 6 of oral mifepristone 300 mg/day titrated up to 900 mg/day", "result": "679 nmol/L and 999 nmol/L and 1151 nmol/L and 955 nmol/L and 731 nmol/L and 654 nmol/L"}]}, {"compound": "Cn1cc(S(=O)(=O)N2CCC3=Cc4c(cnn4-c4ccc(F)cc4)C[C@]3(C(=O)c3cc(C(F)(F)F)ccn3)C2)cn1", "note": "[relacorilant, (R)-(1-(4-fluorophenyl)-6-((1-methyl-1H-pyrazol-4-yl)sulfonyl)-4,4a,5,6,7,8-hexahydro-1H-pyrazolo[3,4-g]isoquinolin-4a-yl)(4-(trifluoromethyl)pyridin-2-yl)methanone]", "values": [{"measurement": "change in ACTH:cortisol ratio following treatment", "setting": "[2]; CS patient with pituitary tumor (ACTH-dependent Cushing's syndrome)", "result": "increased"}, {"measurement": "Week 6 Serum Cortisol", "setting": "[2]; adrenal CS patients (ACTH-independent), after six weeks of oral relacorilant 100 mg/day titrated up to 400 mg/day", "result": "14.9 µg/dL and 17.1 µg/dL"}, {"measurement": "Baseline Serum Cortisol", "setting": "[2]; adrenal CS patients (ACTH-independent), prior to relacorilant", "result": "13.6 µg/dL and 16.2 µg/dL"}, {"measurement": "Week 6 Serum Cortisol", "setting": "[2]; pituitary CS patient (ACTH-dependent), after six weeks of oral relacorilant 100 mg/day titrated up to 400 mg/day", "result": 28.7, "unit": "µg/dL"}, {"measurement": "Baseline Serum Cortisol", "setting": "[2]; pituitary CS patient (ACTH-dependent), prior to relacorilant", "result": 20.7, "unit": "µg/dL"}, {"measurement": "Week 6 ACTH", "setting": "[2]; pituitary CS patient (ACTH-dependent), serum, after six weeks of oral relacorilant 100 mg/day titrated up to 400 mg/day", "result": 39.8, "unit": "pg/mL"}, {"measurement": "Baseline ACTH", "setting": "[2]; pituitary CS patient (ACTH-dependent), serum, prior to relacorilant", "result": 23.9, "unit": "pg/mL"}, {"measurement": "Post-Treatment Ratio (ACTH:cortisol)", "setting": "[2]; pituitary CS patient, ACTH in pg/ml divided by cortisol in μg/dL, after six weeks of oral relacorilant 100-400 mg/day", "result": 1.39}, {"measurement": "Baseline Ratio (ACTH:cortisol)", "setting": "[2]; pituitary CS patient, ACTH in pg/ml divided by cortisol in μg/dL, prior to relacorilant", "result": 1.15}, {"measurement": "change in ACTH:cortisol ratio following treatment", "setting": "[2]; two CS patients with adrenal tumors (ACTH-independent Cushing's syndrome)", "result": "decreased"}]}]}
